Assay results: US20080113101A1, “ORGANIC-ELECTROLUMINESCENCE-MATERIAL-CONTAINING SOLUTION, METHOD FOR FORMING THIN FILM OF ORGANIC ELECTROLUMINESCENCE MATERIAL, THIN FILM OF ORGANIC ELECTROLUMINESCENCE MATERIAL AND ORGANIC ELECTROLUMINESCENCE DEVICE” (Idemitsu Kosan Co., Ltd., priority 2006, published 2008)

Assay: Ink solubility, insoluble matter visually observed
Assay type: physicochemical
Conditions: H10: ink of Example 28 with Compound H10 instead of H4
Procedure: (§1) Specifically, samples of a host compound and a dopant compound were blended in a weight ratio of 20:1 in a sample pot, to which a solvent and a viscosity control agent were added.
(§2) Table 5 and Table 6 each show a type of solvent, solid content (wt %), solubility (o: no insoluble matter visually observed, x: insoluble matter visually observed), viscosity and a solution condition after a week.

With `c1ccc(-c2ccccc2-c2ccc3c(-c4ccccc4)c4ccccc4c(-c4ccccc4)c3c2)cc1` [Compound H10] the “insoluble matter in the ink (in words)” value was “no solid matters left undissolved”.

Assay: Solubility Evaluation 1: solubility of host compounds in toluene
Assay type: physicochemical
Conditions: host compounds
Procedure: Solubility Evaluation 1 was conducted by the following method.
(§3) A hundred mg of each compound was placed in a sample pot and the toluene as the solvent was added until the compound was dissolved. The solubility in the toluene was obtained from an amount of the added toluene.

In the case of `c1ccc(-c2ccc(-c3ccccc3-c3c4ccccc4c(-c4c5ccccc5c(-c5ccccc5-c5ccc(-c6ccccc6)cc5)c5ccccc45)c4ccccc34)cc2)cc1` [Compound H9], the “solubility in the toluene (in words)” value is reported as “solubility capable of performing the thickness control of the films”.

For `c1ccc(-c2ccccc2-c2ccc3c(-c4ccccc4)c4ccccc4c(-c4ccccc4)c3c2)cc1` [Compound H10], the solubility in toluene was 5 wt %.

Same assay, conditions: in toluene; 100 mg compound, toluene added until dissolved

First: c1ccc(-c2ccc(-c3ccccc3-c3c4ccccc4c(-c4c5ccccc5c(-c5ccccc5-c5ccc(-c6ccccc6)cc5)c5ccccc45)c4ccccc34)cc2)cc1 [Compound H9]
Second: c1cc(-c2ccc(-c3cccc4ccccc34)cc2)cc(-c2c3ccccc3c(-c3ccc(-c4cccc5ccccc45)cc3)c3ccccc23)c1 [Compound H2]
The “Solubility (%)” value of the first is lower: 1.4% for the first, 2.0% for the second.

`c1ccc2cc(-c3ccc4cc(-c5c6ccccc6c(-c6ccc(-c7cccc8ccccc78)cc6)c6ccccc56)ccc4c3)ccc2c1` [Compound H3] and `c1ccc2cc(-c3ccc(-c4c5ccccc5c(-c5ccc(-c6cccc7ccccc67)cc5)c5ccccc45)cc3)ccc2c1` [Compound H1] are the same in “Solubility (%)” value: 2.0% for the first, 2.0% for the second.

Compared with `c1ccc2cc(-c3c4ccccc4c(-c4ccc(-c5cccc6ccccc56)cc4)c4ccccc34)ccc2c1` [Compound H4], `c1cc(-c2ccc3ccccc3c2)cc(-c2c3ccccc3c(-c3cccc4ccccc34)c3ccccc23)c1` [Compound H6] is lower in “Solubility (%)” value: 5.0% for the first, 0.25% for the second.

Going from `c1ccc(-c2cc(-c3ccc4ccccc4c3)cc(-c3c4ccccc4c(-c4ccc5ccccc5c4)c4ccccc34)c2)cc1` [Compound H5] to `c1cc(-c2ccc3ccccc3c2)cc(-c2c3ccccc3c(-c3ccc4cc(-c5ccc6ccccc6c5)ccc4c3)c3ccccc23)c1` [Compound H7], the “Solubility (%)” value falls from 5.0% to 0.25%.

For `c1ccc(-c2ccc(-c3c4ccccc4c(-c4ccccc4)c4ccccc34)cc2)cc1` [Compound H8], the “Solubility (%)” value was 0.2%.

Assay: Ink solution condition after a week (pot life)
Assay type: physicochemical
Conditions: H10: ink of Example 28 with Compound H10 instead of H4
Procedure: as §1, §2

With `c1ccc(-c2ccccc2-c2ccc3c(-c4ccccc4)c4ccccc4c(-c4ccccc4)c3c2)cc1` [Compound H10] the “precipitation within a week / pot life (in words)” value was “precipitation was not observed after a week”.

Assay: Solubility Evaluation 2: solubility of dopant compounds in toluene
Assay type: physicochemical
Conditions: Table 2
Procedure: as §3

`Cc1ccc(N(c2ccc(C)cc2)c2c3ccccc3c(N(c3ccc(C)cc3)c3ccc(C)cc3)c3cc(C(C)(C)C)ccc23)cc1` [EM139] and `Cc1ccc(N(c2ccc(C)cc2)c2c3ccc(C(C)(C)C)cc3c(N(c3ccc(C)cc3)c3ccc(C)cc3)c3ccc(C(C)(C)C)cc23)cc1` [EM143] are the same in “Solubility (%)” value: 0.5% for the first, 0.5% for the second.

`Cc1cccc(N(c2cccc(C)c2)c2c3ccccc3c(N(c3cccc(C)c3)c3cccc(C)c3)c3cc(C4CC5CCC4C5)ccc23)c1` (centres unmarked) [EM175] and `Cc1cccc(N(c2cccc(C)c2)c2c3ccc(C(C)C)cc3c(N(c3cccc(C)c3)c3cccc(C)c3)c3ccc(C(C)C)cc23)c1` [EM149] are the same in “Solubility (%)” value: 0.5% for the first, 0.5% for the second.

`Cc1ccc(N(c2ccc(C(C)C)cc2)c2c3ccc(C(C)(C)C)cc3c(N(c3ccc(C)cc3)c3ccc(C(C)C)cc3)c3ccc(C(C)(C)C)cc23)cc1` [EM144] and `Cc1ccc(N(c2ccc(C(C)C)cc2)c2c3ccccc3c(N(c3ccc(C)cc3)c3ccc(C(C)C)cc3)c3cc(C(C)(C)C)ccc23)cc1` [EM141] are the same in “Solubility (%)” value: 0.5% for the first, 0.5% for the second.

Compared with `Cc1cccc(N(c2ccc(C)c(C)c2)c2c3ccc(C(C)(C)C)cc3c(N(c3cccc(C)c3)c3ccc(C)c(C)c3)c3ccc(C(C)(C)C)cc23)c1` [EM147], `Cc1ccc(N(c2ccc(C)c(C)c2)c2c3ccc(C(C)(C)C)cc3c(N(c3ccc(C)c(C)c3)c3ccc(C)c(C)c3)c3ccc(C(C)(C)C)cc23)cc1C` [EM145] is lower in “Solubility (%)” value: 1% for the first, 0.5% for the second.

`Cc1ccc(N(c2ccc(C(C)(C)C)cc2)c2c3ccccc3c(N(c3ccc(C)cc3)c3ccc(C(C)(C)C)cc3)c3cc(C(C)C)ccc23)cc1` [EM140] and `CC(C)c1ccc(N(c2ccccc2)c2c3ccc(C(C)(C)C)cc3c(N(c3ccccc3)c3ccc(C(C)C)cc3)c3ccc(C(C)(C)C)cc23)cc1` [EM142] are the same in “Solubility (%)” value: 0.5% for the first, 0.5% for the second.

`Cc1ccc(N(c2ccc(C)cc2)c2c3ccc(C4CCCCC4)cc3c(N(c3ccc(C)cc3)c3ccc(C)cc3)c3ccc(C(C)C)cc23)cc1` [EM138] and `Cc1ccc(N(c2ccc(C(C)C)cc2)c2c3ccccc3c(N(c3ccc(C)cc3)c3ccc(C(C)C)cc3)c3cc(C45CC6CC(CC(C6)C4)C5)ccc23)cc1` [EM176] are the same in “Solubility (%)” value: 0.5% for the first, 0.5% for the second.

`Cc1cccc(N(c2cccc(C(C)C)c2)c2c3ccc(C(C)(C)C)cc3c(N(c3cccc(C)c3)c3cccc(C(C)C)c3)c3ccc(C(C)(C)C)cc23)c1` [EM146] and `CC(C)(C)c1ccc2c(N(c3ccc4ccccc4c3)c3ccc4ccccc4c3)c3cc(C(C)(C)C)ccc3c(N(c3ccc4ccccc4c3)c3ccc4ccccc4c3)c2c1` [EM148] are the same in “Solubility (%)” value: 0.5% for the first, 0.5% for the second.

`CC(C)c1ccc2c(N(c3ccc(-c4ccccc4)cc3)c3ccc4ccccc4c3)c3cc(CC4CCCCC4)ccc3c(N(c3ccc(-c4ccccc4)cc3)c3ccc4ccccc4c3)c2c1` [EM136] and `c1ccc(N(c2ccc3ccccc3c2)c2c3ccccc3c(N(c3ccccc3)c3ccc4ccccc4c3)c3cc(C4CCCCC4)ccc23)cc1` [EM174] are the same in “Solubility (%)” value: 0.5% for the first, 0.5% for the second.

Compared with `CCC(C)c1ccc(N(c2ccccc2)c2c3ccc(C(C)C)cc3c(N(c3ccccc3)c3ccc(C(C)CC)cc3)c3ccc(CC(C)(C)C)cc23)cc1` (centres unmarked) [EM137], `CC(C)c1ccc(N(c2ccccc2)c2c3ccccc3c(N(c3ccccc3)c3ccc(C(C)C)cc3)c3cc(C45CC6CC(CC(C6)C4)C5)ccc23)cc1` [EM177] is lower in “Solubility (%)” value: 1% for the first, 0.5% for the second.

Same assay, conditions: Table 3

`Cc1ccc(N(c2ccc(C(C)C)cc2)c2c3ccccc3c(N(c3ccc(C)cc3)c3ccc(C(C)C)cc3)c3c2ccc2ccccc23)cc1` [EM210] and `Cc1ccc(N(c2ccc(C(C)C)cc2)c2c3ccccc3c(N(c3ccc(C(C)C)cc3)c3ccc(C(C)C)cc3)c3c2ccc2ccccc23)cc1` [EM211] are the same in “Solubility (%)” value: 1% for the first, 1% for the second.

Going from `CCC(C)c1ccc(N(c2ccc(-c3ccccc3)cc2)c2ccc(N(c3ccc(-c4ccccc4)cc3)c3ccc(C(C)CC)cc3)c3ccccc23)cc1` (centres unmarked) [EM191] to `CCc1ccc(N(c2ccc(C(C)CC)cc2)c2c3ccccc3c(-c3c4ccccc4c(N(c4ccc(CC)cc4)c4ccc(C(C)CC)cc4)c4ccccc34)c3ccccc23)cc1` (centres unmarked) [EM206], the “Solubility (%)” value falls from 1% to 0.5%.

`Cc1ccc(N(c2ccc(C(C)C)cc2)c2c3ccccc3c(-c3c4ccccc4c(N(c4ccc(C)cc4)c4ccc(C(C)C)cc4)c4cc(C(C)(C)C)ccc34)c3ccc(C(C)(C)C)cc23)cc1` [EM209] and `CC(C)c1ccc(N(c2ccc(C(C)(C)C)cc2)c2c3ccccc3c(N(c3ccc(C(C)C)cc3)c3ccc(C(C)(C)C)cc3)c3ccccc23)cc1` [EM205] are the same in “Solubility (%)” value: 0.5% for the first, 0.5% for the second.

First: CC(C)c1ccc(N(c2cccc(-c3ccccc3)c2)c2c3ccccc3c(-c3c4ccccc4c(N(c4ccc(C(C)C)cc4)c4cccc(-c5ccccc5)c4)c4ccccc34)c3ccccc23)cc1 [EM207]
Second: Cc1cc(C)cc(N(c2ccc(C(C)C)cc2)c2c3ccccc3c(-c3c4ccccc4c(N(c4ccc(C(C)C)cc4)c4cc(C)cc(C)c4)c4ccccc34)c3ccccc23)c1 [EM208]
The “Solubility (%)” value of the first is lower: 0.5% for the first, 1% for the second.

Going from `CC(C)c1ccc(N(c2ccc(C(C)C)cc2)c2cc3c4ccccc4c(N(c4ccc(C(C)C)cc4)c4ccc(C(C)C)cc4)cc3c3ccccc23)cc1` [EM212] to `Cc1ccc(N(c2ccc(C(C)C)cc2)c2cc3c4ccccc4c(N(c4ccc(C)cc4)c4ccc(C(C)C)cc4)cc3c3ccccc23)cc1` [EM213], the “Solubility (%)” value falls from 1% to 0.5%.

Going from `Cc1ccc(N(c2ccc(C(C)C)cc2)c2ccc3ccc4c(N(c5ccc(C)cc5)c5ccc(C(C)C)cc5)ccc5ccc2c3c54)cc1` [EM193] to `CC(C)c1ccc(N(c2ccc(C(C)C)cc2)c2ccc3ccc4c(N(c5ccc(C(C)C)cc5)c5ccc(C(C)C)cc5)ccc5ccc2c3c54)cc1` [EM196], the “Solubility (%)” value rises from 0.5% to 1%.

`c1ccc(-c2cc(N(c3ccc(C4CCCCC4)cc3)c3cc4ccccc4c4ccccc34)c3cc(-c4ccccc4)cc(N(c4ccc(C5CCCCC5)cc4)c4cc5ccccc5c5ccccc45)c3c2)cc1` [EM192] and `CC(C)c1ccc(N(c2cccc(C(C)(C)C)c2)c2cc3c4ccccc4c(N(c4ccc(C(C)C)cc4)c4cccc(C(C)(C)C)c4)cc3c3ccccc23)cc1` [EM214] are the same in “Solubility (%)” value: 1% for the first, 1% for the second.

Going from `Cc1cc(C)cc(N(c2ccc(C(C)C)cc2)c2ccc3ccc4c(N(c5ccc(C(C)C)cc5)c5cc(C)cc(C)c5)ccc5ccc2c3c54)c1` [EM195] to `Cc1cc(C)cc(N(c2ccc(C(C)C)cc2)c2cc3c4ccccc4c(N(c4ccc(C(C)C)cc4)c4cc(C)cc(C)c4)cc3c3ccccc23)c1` [EM215], the “Solubility (%)” value rises from 0.5% to 1%.

`CC(C)c1ccc(N(c2ccc3ccccc3c2)c2ccc3ccc4c(N(c5ccc(C(C)C)cc5)c5ccc6ccccc6c5)ccc5ccc2c3c54)cc1` [EM194] and `CC(C)c1ccc(N(c2ccc(C(C)(C)C)cc2)c2ccc3ccc4c(N(c5ccc(C(C)C)cc5)c5ccc(C(C)(C)C)cc5)ccc5ccc2c3c54)cc1` [EM197] are the same in “Solubility (%)” value: 1% for the first, 1% for the second.

For `CC(C)c1ccc(N(c2ccc(C(C)C)cc2)c2c3ccccc3c(N(c3ccc(C(C)C)cc3)c3ccc(C(C)C)cc3)c3ccccc23)cc1` [EM204], the “Solubility (%)” value was 0.5%.

Same assay, conditions: Table 4

`Cc1cccc(N(c2cccc(C)c2)c2c3ccccc3c(N(c3cccc(C)c3)c3cccc(C)c3)c3cc(C4CC5CCC4C5)ccc23)c1` (centres unmarked) [EM175] and `CC(C)c1ccc(N(c2ccccc2)c2c3ccccc3c(N(c3ccccc3)c3ccc(C(C)C)cc3)c3cc(C45CC6CC(CC(C6)C4)C5)ccc23)cc1` [EM177] are the same in “Solubility (%)” value: 0.5% for the first, 0.5% for the second.

`CCC(C)c1ccc(N(c2ccc(/C=C/c3ccc(/C=C/c4ccc(N(c5ccc(C(C)CC)cc5)c5ccc(C(C)CC)cc5)cc4)cc3)cc2)c2ccc(C(C)CC)cc2)cc1` (centres unmarked) [Compound D1] and `Cc1ccc(N(c2ccc(C(C)C)cc2)c2c3ccccc3c(N(c3ccc(C)cc3)c3ccc(C(C)C)cc3)c3cc(C45CC6CC(CC(C6)C4)C5)ccc23)cc1` [EM176] are the same in “Solubility (%)” value: 0.5% for the first, 0.5% for the second.

For `Cc1ccc(N(c2ccc(C)cc2)c2ccc(/C=C/c3ccc(/C=C/c4ccc(N(c5ccc(C)cc5)c5ccc(C)cc5)cc4)cc3)cc2)cc1` [Compound D4, reference compound], the “Solubility (%)” value was under 0.1%.
For `c1ccc(N(c2ccccc2)c2c3ccccc3c(N(c3ccccc3)c3ccccc3)c3ccccc23)cc1` [Compound D3, reference compound], the “Solubility (%)” value was under 0.1%.
